The supplement of paper PMC10307832

Columns and labels:
Experiment in all cases: relative viability (nuclei count vs DMSO), 5 days (fraction); higher = more cells survive
JZL-184 = compound: C1CN(CCC1C(C2=CC3=C(C=C2)OCO3)(C4=CC5=C(C=C4)OCO5)O)C(=O)OC6=CC=C(C=C6)[N+](=O)[O-] [JZL-184]
How it was run: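 Five library-drug doses spaced by √10 were pinned onto vehicle-anchored 1536-well plates of lung cancer cell lines that had been kept overnight at 37 °C. Cells went 5 days without medium change, then were fixed, permeabilised and Hoechst-stained together, imaged at 4× and counted by MetaXpress. Viability is the ratio of treated-well to vehicle-well nuclei, taken as a median over plates. Plates required control CV below 25% and at least one doubling.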

JZL-184 + Luminespib = compound: C1CN(CCC1C(C2=CC3=C(C=C2)OCO3)(C4=CC5=C(C=C4)OCO5)O)C(=O)OC6=CC=C(C=C6)[N+](=O)[O-] [JZL-184] + CCNC(=O)c1noc(-c2cc(C(C)C)c(O)cc2O)c1-c1ccc(CN2CCOCC2)cc1 [Luminespib] (partner 0.01 µM)
How it was run: (§1)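 Cells from lung cancer lines were seeded into 1536-well plates and, one day later, dosed by pin tool. Treatments were either a single drug or a fixed dose of an anchor drug with five library-drug doses (not always all listed) in √10 steps. After 5 days, nuclei were stained in a one-step fixation (final 0.05% Triton X-100, 1% formaldehyde, 1 ug/ml Hoechst) and counted on 4× images, and relative viability is the treated-to-vehicle nuclei ratio, as the median of duplicate plates.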

JZL-184 + Foretinib = compound: C1CN(CCC1C(C2=CC3=C(C=C2)OCO3)(C4=CC5=C(C=C4)OCO5)O)C(=O)OC6=CC=C(C=C6)[N+](=O)[O-] [JZL-184] + COc1cc2c(Oc3ccc(NC(=O)C4(C(=O)Nc5ccc(F)cc5)CC4)cc3F)ccnc2cc1OCCCN1CCOCC1 [Foretinib] (partner 0.25 µM)
How it was run: as §1

JZL-184 + OSI-027 = compound: C1CN(CCC1C(C2=CC3=C(C=C2)OCO3)(C4=CC5=C(C=C4)OCO5)O)C(=O)OC6=CC=C(C=C6)[N+](=O)[O-] [JZL-184] + COc1cccc2cc(-c3nc([C@H]4CC[C@H](C(=O)O)CC4)n4ncnc(N)c34)[nH]c12 [OSI-027] (partner 0.5 µM)
How it was run: as §1

JZL-184 + Tozasertib = compound: C1CN(CCC1C(C2=CC3=C(C=C2)OCO3)(C4=CC5=C(C=C4)OCO5)O)C(=O)OC6=CC=C(C=C6)[N+](=O)[O-] [JZL-184] + Cc1cc(Nc2cc(N3CCN(C)CC3)nc(Sc3ccc(NC(=O)C4CC4)cc3)n2)n[nH]1 [Tozasertib] (partner 0.1 µM)
How it was run: as §1

JZL-184 + Dasatinib = compound: C1CN(CCC1C(C2=CC3=C(C=C2)OCO3)(C4=CC5=C(C=C4)OCO5)O)C(=O)OC6=CC=C(C=C6)[N+](=O)[O-] [JZL-184] + Cc1nc(Nc2ncc(C(=O)Nc3c(C)cccc3Cl)s2)cc(N2CCN(CCO)CC2)n1 [Dasatinib] (partner 0.075 µM)
How it was run: as §1

JZL-184 + Phenformin = compound: C1CN(CCC1C(C2=CC3=C(C=C2)OCO3)(C4=CC5=C(C=C4)OCO5)O)C(=O)OC6=CC=C(C=C6)[N+](=O)[O-] [JZL-184] + N=C(N)NC(=N)NCCc1ccccc1 [Phenformin] (partner 250 µM)
How it was run: as §1

JZL-184 + Trametinib = compound: C1CN(CCC1C(C2=CC3=C(C=C2)OCO3)(C4=CC5=C(C=C4)OCO5)O)C(=O)OC6=CC=C(C=C6)[N+](=O)[O-] [JZL-184] + CC(=O)Nc1cccc(-n2c(=O)n(C3CC3)c(=O)c3c(Nc4ccc(I)cc4F)n(C)c(=O)c(C)c32)c1 [Trametinib] (partner 0.02 µM)
How it was run: as §1

JZL-184 + Palbociclib = compound: C1CN(CCC1C(C2=CC3=C(C=C2)OCO3)(C4=CC5=C(C=C4)OCO5)O)C(=O)OC6=CC=C(C=C6)[N+](=O)[O-] [JZL-184] + CC(=O)c1c(C)c2cnc(Nc3ccc(N4CCNCC4)cn3)nc2n(C2CCCC2)c1=O [Palbociclib] (partner 0.5 µM)
How it was run: as §1

JZL-184 + AZD7762 = compound: C1CN(CCC1C(C2=CC3=C(C=C2)OCO3)(C4=CC5=C(C=C4)OCO5)O)C(=O)OC6=CC=C(C=C6)[N+](=O)[O-] [JZL-184] + NC(=O)Nc1cc(-c2cccc(F)c2)sc1C(=O)N[C@H]1CCCNC1 [AZD7762] (partner 0.2 µM)
How it was run: as §1

JZL-184 + Pemetrexed = compound: C1CN(CCC1C(C2=CC3=C(C=C2)OCO3)(C4=CC5=C(C=C4)OCO5)O)C(=O)OC6=CC=C(C=C6)[N+](=O)[O-] [JZL-184] + Nc1nc2[nH]cc(CCc3ccc(C(=O)N[C@@H](CCC(=O)O)C(=O)O)cc3)c2c(=O)[nH]1 [Pemetrexed] (partner 0.2 µM)
How it was run: as §1

JZL-184 + Decitabine = compound: C1CN(CCC1C(C2=CC3=C(C=C2)OCO3)(C4=CC5=C(C=C4)OCO5)O)C(=O)OC6=CC=C(C=C6)[N+](=O)[O-] [JZL-184] + Nc1ncn([C@H]2C[C@H](O)[C@@H](CO)O2)c(=O)n1 [Decitabine] (partner 2 µM)
How it was run: as §1

JZL-184 + Vorinostat = compound: C1CN(CCC1C(C2=CC3=C(C=C2)OCO3)(C4=CC5=C(C=C4)OCO5)O)C(=O)OC6=CC=C(C=C6)[N+](=O)[O-] [JZL-184] + O=C(CCCCCCC(=O)Nc1ccccc1)NO [Vorinostat] (partner 1 µM)
How it was run: as §1

JZL-184 + Olaparib = compound: C1CN(CCC1C(C2=CC3=C(C=C2)OCO3)(C4=CC5=C(C=C4)OCO5)O)C(=O)OC6=CC=C(C=C6)[N+](=O)[O-] [JZL-184] + O=C(c1cc(Cc2n[nH]c(=O)c3ccccc23)ccc1F)N1CCN(C(=O)C2CC2)CC1 [Olaparib] (partner 8 µM)
How it was run: as §1

NCI-H1623 was tested. Which relative viability (JZL-184; 0.04 µM) did it give?
The relative viability was 0.941.

And the relative viability (JZL-184; 0.4 µM)?
Its relative viability is 0.988.

And the relative viability (JZL-184; 1.265 µM)?
Its relative viability is 1.

What about the relative viability (JZL-184; 4 µM) of the same cell line?
The relative viability was 0.937.

And the relative viability (JZL-184 + Luminespib; first compound 0.04 µM)?
The relative viability was 0.389.

What about the relative viability (JZL-184 + Luminespib; first compound 0.4 µM) of the same cell line?
The relative viability was 0.411.

And the relative viability (JZL-184 + Luminespib; first compound 1.265 µM)?
Its relative viability is 0.626.

And the relative viability (JZL-184 + Luminespib; first compound 4 µM)?
The relative viability was 0.585.

And the relative viability (JZL-184 + Foretinib; first compound 0.04 µM)?
Its relative viability is 0.904.

And the relative viability (JZL-184 + Foretinib; first compound 0.4 µM)?
Its relative viability is 0.818.

And the relative viability (JZL-184 + Foretinib; first compound 1.265 µM)?
The relative viability was 0.944.

What about the relative viability (JZL-184 + Foretinib; first compound 4 µM) of the same cell line?
Its relative viability is 0.807.

What about the relative viability (JZL-184 + OSI-027; first compound 0.04 µM) of the same cell line?
Its relative viability is 0.463.

What about the relative viability (JZL-184 + OSI-027; first compound 0.4 µM) of the same cell line?
Its relative viability is 0.438.

What about the relative viability (JZL-184 + OSI-027; first compound 1.265 µM) of the same cell line?
The relative viability was 0.464.

And the relative viability (JZL-184 + OSI-027; first compound 4 µM)?
Its relative viability is 0.446.

What about the relative viability (JZL-184 + Tozasertib; first compound 0.04 µM) of the same cell line?
The relative viability was 0.453.

And the relative viability (JZL-184 + Tozasertib; first compound 0.4 µM)?
Its relative viability is 0.442.

What about the relative viability (JZL-184 + Tozasertib; first compound 1.265 µM) of the same cell line?
The relative viability was 0.442.

And the relative viability (JZL-184 + Tozasertib; first compound 4 µM)?
The relative viability was 0.482.

What about the relative viability (JZL-184 + Dasatinib; first compound 0.04 µM) of the same cell line?
The relative viability was 0.512.

And the relative viability (JZL-184 + Dasatinib; first compound 0.4 µM)?
The relative viability was 0.561.

What about the relative viability (JZL-184 + Dasatinib; first compound 1.265 µM) of the same cell line?
The relative viability was 0.573.

And the relative viability (JZL-184 + Dasatinib; first compound 4 µM)?
Its relative viability is 0.47.

What about the relative viability (JZL-184 + Phenformin; first compound 0.04 µM) of the same cell line?
The relative viability was 0.566.

And the relative viability (JZL-184 + Phenformin; first compound 0.4 µM)?
The relative viability was 0.551.

And the relative viability (JZL-184 + Phenformin; first compound 1.265 µM)?
Its relative viability is 0.595.

What about the relative viability (JZL-184 + Phenformin; first compound 4 µM) of the same cell line?
Its relative viability is 0.565.

How did the relative viability (JZL-184; 0.04 µM) turn out when NCI-H1648 was run?
Its relative viability is 0.593.

What about the relative viability (JZL-184; 0.4 µM) of the same cell line?
The relative viability was 0.893.

And the relative viability (JZL-184; 1.265 µM)?
The relative viability was 1.07.

And the relative viability (JZL-184; 4 µM)?
The relative viability was 1.08.

What about the relative viability (JZL-184 + Trametinib; first compound 0.04 µM) of the same cell line?
Its relative viability is 0.402.

What about the relative viability (JZL-184 + Trametinib; first compound 0.4 µM) of the same cell line?
Its relative viability is 0.413.

What about the relative viability (JZL-184 + Trametinib; first compound 1.265 µM) of the same cell line?
Its relative viability is 0.481.

What about the relative viability (JZL-184 + Trametinib; first compound 4 µM) of the same cell line?
The relative viability was 0.445.

And the relative viability (JZL-184 + Palbociclib; first compound 0.04 µM)?
The relative viability was 0.271.

What about the relative viability (JZL-184 + Palbociclib; first compound 0.4 µM) of the same cell line?
Its relative viability is 0.238.

What about the relative viability (JZL-184 + Palbociclib; first compound 1.265 µM) of the same cell line?
Its relative viability is 0.233.

And the relative viability (JZL-184 + Palbociclib; first compound 4 µM)?
Its relative viability is 0.297.

And the relative viability (JZL-184 + OSI-027; first compound 0.4 µM)?
Its relative viability is 0.24.

And the relative viability (JZL-184 + OSI-027; first compound 1.265 µM)?
Its relative viability is 0.257.

And the relative viability (JZL-184 + OSI-027; first compound 4 µM)?
Its relative viability is 0.223.

What about the relative viability (JZL-184 + Tozasertib; first compound 0.4 µM) of the same cell line?
Its relative viability is 0.491.

And the relative viability (JZL-184 + Tozasertib; first compound 1.265 µM)?
The relative viability was 0.466.

What about the relative viability (JZL-184 + Tozasertib; first compound 4 µM) of the same cell line?
The relative viability was 0.538.

What about the relative viability (JZL-184 + AZD7762; first compound 0.04 µM) of the same cell line?
The relative viability was 0.694.

What about the relative viability (JZL-184 + AZD7762; first compound 0.4 µM) of the same cell line?
The relative viability was 0.719.

What about the relative viability (JZL-184 + AZD7762; first compound 1.265 µM) of the same cell line?
Its relative viability is 0.824.

And the relative viability (JZL-184 + AZD7762; first compound 4 µM)?
The relative viability was 0.706.

What about the relative viability (JZL-184 + Pemetrexed; first compound 0.04 µM) of the same cell line?
Its relative viability is 0.712.

What about the relative viability (JZL-184 + Pemetrexed; first compound 0.4 µM) of the same cell line?
Its relative viability is 0.832.

What about the relative viability (JZL-184 + Pemetrexed; first compound 1.265 µM) of the same cell line?
Its relative viability is 0.651.

And the relative viability (JZL-184 + Pemetrexed; first compound 4 µM)?
Its relative viability is 0.564.

And the relative viability (JZL-184 + Decitabine; first compound 0.04 µM)?
The relative viability was 0.437.

What about the relative viability (JZL-184 + Decitabine; first compound 0.4 µM) of the same cell line?
The relative viability was 0.551.

What about the relative viability (JZL-184 + Decitabine; first compound 1.265 µM) of the same cell line?
Its relative viability is 0.546.

What about the relative viability (JZL-184 + Decitabine; first compound 4 µM) of the same cell line?
Its relative viability is 0.549.

What about the relative viability (JZL-184 + Vorinostat; first compound 0.04 µM) of the same cell line?
The relative viability was 0.307.

And the relative viability (JZL-184 + Vorinostat; first compound 0.4 µM)?
Its relative viability is 0.434.

And the relative viability (JZL-184 + Vorinostat; first compound 1.265 µM)?
Its relative viability is 0.754.

And the relative viability (JZL-184 + Vorinostat; first compound 4 µM)?
The relative viability was 0.421.

And the relative viability (JZL-184 + Olaparib; first compound 0.04 µM)?
The relative viability was 1.03.

What about the relative viability (JZL-184 + Olaparib; first compound 0.4 µM) of the same cell line?
The relative viability was 0.853.

What about the relative viability (JZL-184 + Olaparib; first compound 1.265 µM) of the same cell line?
The relative viability was 0.783.

And the relative viability (JZL-184 + Olaparib; first compound 4 µM)?
Its relative viability is 0.626.
